The text below walks through data of US20230265151A1, “GIP/GLP1 CO-AGONIST COMPOUNDS” (priority 2020, published 2023).

Structures are written as SMILES. Read-outs that look alike come from different tables or passages of the source. *1 amine or outer side, *2 acyl side, *3 side chain or, on linkers, in order; H or OH if unused. Where a SMILES comes first, the peptide text is derived from it. Side-chain parts run from the residue outwards. [ ]: non-standard residue; d: D form. The star is where a group is joined. Decanoyl(10-(4-HOOC-PhO)) = O=C(O)c1ccc(OCCCCCCCCCC(=O)*)cc1; αMePhe(2-F) = C[C@](N)(Cc1ccccc1F)C(=O)O; γGlu = O=C(O)[C@H](CCC(=O)[*:2])N[*:1]; αMeY = C[C@](N)(Cc1ccc(O)cc1)C(=O)O; αMeL = CC(C)C[C@](C)(N)C(=O)O; Orn = NCCC[C@H](N)C(=O)O; AEEA = NCCOCCOCC(=O)O; Aib = CC(C)(N)C(=O)O

The target in assay [1] is T1, human Gcg receptor (hGcgR) (Homo sapiens, UniProt P47871).
T1 construct: expressed in transfected cells; crude membranes
T1 sequence (P47871 26-477): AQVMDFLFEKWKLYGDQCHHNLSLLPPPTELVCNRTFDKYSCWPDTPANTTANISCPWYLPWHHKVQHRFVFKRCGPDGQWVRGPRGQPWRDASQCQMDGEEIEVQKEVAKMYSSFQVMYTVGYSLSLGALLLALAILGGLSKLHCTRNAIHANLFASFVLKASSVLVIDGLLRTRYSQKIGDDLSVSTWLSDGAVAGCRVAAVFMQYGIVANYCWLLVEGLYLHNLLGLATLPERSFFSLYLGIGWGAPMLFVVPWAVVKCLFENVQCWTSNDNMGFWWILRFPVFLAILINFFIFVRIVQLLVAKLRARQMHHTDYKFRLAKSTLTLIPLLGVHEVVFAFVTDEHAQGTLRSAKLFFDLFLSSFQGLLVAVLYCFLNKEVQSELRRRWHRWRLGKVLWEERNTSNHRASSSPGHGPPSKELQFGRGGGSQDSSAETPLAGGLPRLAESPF
The assay can be described thus: [125I]-Glucagon binding, SPA with membranes of HEK293 cells expressing hGcgR.

The target in assay [2] is T2, human GIP receptor (hGIPR) (Homo sapiens, UniProt P48546).
T2 construct: expressed in transfected cells; crude membranes
T2 sequence (P48546 22-466): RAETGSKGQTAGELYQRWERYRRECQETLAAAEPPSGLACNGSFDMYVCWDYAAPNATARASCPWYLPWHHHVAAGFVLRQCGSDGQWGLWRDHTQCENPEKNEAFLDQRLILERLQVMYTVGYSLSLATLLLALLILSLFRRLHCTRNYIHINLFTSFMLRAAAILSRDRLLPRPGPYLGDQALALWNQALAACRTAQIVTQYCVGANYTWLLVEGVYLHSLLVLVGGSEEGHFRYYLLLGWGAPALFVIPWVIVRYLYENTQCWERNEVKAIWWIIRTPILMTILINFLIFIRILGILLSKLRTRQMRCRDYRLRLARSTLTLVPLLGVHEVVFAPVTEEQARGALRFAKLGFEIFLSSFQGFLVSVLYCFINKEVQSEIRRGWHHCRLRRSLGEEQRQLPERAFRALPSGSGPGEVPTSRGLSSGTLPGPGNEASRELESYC
Put plainly: [125I]-GIP binding, SPA with membranes of CHO cells expressing hGIPR.

A further assay deals with T3, hGCGR (Homo sapiens, UniProt P47871).
T3 construct: expressed in transfected cells
T3 sequence (P47871 26-477): as the sequence (P47871 26-477) above
The assay can be described thus: Functional cAMP formation (HTRF) in HEK-293 clonal cells expressing hGCGR, 0.1% bovine casein, without or with 1.0% human serum albumin. Format: cell-based. To be noted: cAMP. The procedure, abridged: (§1)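 Cells were stimulated with peptide for 30 min at 37° C, then intracellular cAMP was measured by competitive HTRF (665/620 nm ratio) and converted to nM using a cAMP standard curve. Relative EC50 and Emax came from four-parameter logistic fits of percent maximal response against peptide concentration.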

Another assay concerns the target T4, hGIPR (Homo sapiens, UniProt P48546).
T4 construct: expressed in transfected cells
T4 sequence (P48546 22-466): T2 sequence (P48546 22-466)
The assay can be described thus: Functional cAMP formation (HTRF) in HEK-293 clonal cells expressing hGIPR, 0.1% bovine casein, without or with 1.0% human serum albumin. Format: cell-based. The conditions noted are these: for EC50: cAMP, 0.1% bovine casein (no human serum albumin), geometric mean. The procedure, abridged:
as §1

Another assay deals with hGLP-1R (Homo sapiens, UniProt P43220). The assay can be described thus: Functional cAMP formation (HTRF) in HEK-293 clonal cells expressing hGLP-1R, 0.1% bovine casein, without or with 1.0% human serum albumin. The arrangement: expressed in transfected cells. To be noted: for EC50: cAMP. In kind it is cell-based. In outline:
as §1
(cAMP levels reflect the balance of adenylyl cyclase and phosphodiesterase activity.)

The target in assay [3] is T5, human GLP-1 receptor (hGLP-1R) (Homo sapiens, UniProt P43220).
T5 construct: expressed in transfected cells; crude membranes
T5 sequence (P43220 24-463): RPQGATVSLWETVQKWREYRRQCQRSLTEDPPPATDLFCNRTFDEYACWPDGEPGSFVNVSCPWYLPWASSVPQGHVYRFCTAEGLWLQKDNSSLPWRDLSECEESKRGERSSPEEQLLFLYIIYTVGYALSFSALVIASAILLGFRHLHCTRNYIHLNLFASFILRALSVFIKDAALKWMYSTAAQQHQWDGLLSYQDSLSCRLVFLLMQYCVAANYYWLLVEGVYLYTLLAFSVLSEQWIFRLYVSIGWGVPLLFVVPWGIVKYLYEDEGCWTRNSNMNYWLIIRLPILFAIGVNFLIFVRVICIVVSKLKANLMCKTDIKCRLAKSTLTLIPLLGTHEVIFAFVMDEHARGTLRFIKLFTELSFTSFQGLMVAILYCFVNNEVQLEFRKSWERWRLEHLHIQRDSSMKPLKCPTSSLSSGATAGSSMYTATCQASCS
Put plainly: [125I]-GLP-1 binding, SPA with membranes of HEK293 cells expressing hGLP-1R.

Chain of hGLP-1R (P43220 24-463): as above

As for `CC[C@H](C)[C@H](NC(=O)[C@H](CC(C)C)NC(=O)[C@](C)(Cc1ccc(O)cc1)NC(=O)[C@H](CCCCNC(=O)COCCOCCNC(=O)COCCOCCNC(=O)CC[C@H](NC(=O)CCCCCCCCCOc1ccc(C(=O)O)cc1)C(=O)O)NC(=O)[C@@H](NC(=O)[C@H](Cc1ccccc1)NC(=O)[C@H](CCC(=O)O)NC(=O)C(C)(C)NC(=O)[C@H](CCC(N)=O)NC(=O)[C@H](C)NC(=O)[C@H](CCCCNC(=O)COCCOCCNC(=O)COCCOCCNC(=O)CC[C@H](NC(=O)CCCCCCCCCOc1ccc(C(=O)O)cc1)C(=O)O)NC(=O)[C@H](CCCN)NC(=O)[C@H](CC(=O)O)NC(=O)[C@H](CC(C)C)NC(=O)[C@](C)(CC(C)C)NC(=O)[C@@H](NC(=O)[C@H](CO)NC(=O)[C@H](Cc1ccncc1)NC(=O)[C@H](CC(=O)O)NC(=O)[C@H](CO)NC(=O)[C@@H](NC(=O)[C@](C)(Cc1ccccc1F)NC(=O)[C@@H](NC(=O)CNC(=O)[C@H](CCC(=O)O)NC(=O)C(C)(C)NC(=O)[C@@H](N)Cc1ccc(O)cc1)[C@@H](C)O)[C@@H](C)O)[C@@H](C)CC)[C@@H](C)CC)C(=O)N[C@@H](CCC(=O)O)C(=O)NCC(=O)NCC(=O)N1CCC[C@H]1C(=O)N[C@@H](CO)C(=O)N[C@@H](CO)C(=O)NCC(=O)N[C@@H](C)C(=O)N1CCC[C@H]1C(=O)N1CCC[C@H]1C(=O)N1CCC[C@H]1C(=O)N[C@@H](CO)C(N)=O` [Example 128], the results for the Ki in assay [1] and in assay [2] were greater than 955 nM and 0.0314 nM, respectively. The EC50 (in general, the concentration at which the effect is half-maximal) on hGCGR (hGCGR EC50, nM (SEM, n), incubated at 37° C., 0.1% bovine casein (no human serum albumin), geometric mean) is greater than 9950 nM; at hGIPR (hGIPR EC50, nM (SEM, n), incubated at 37° C.), 0.0232 nM. Besides, the Emax (commonly the greatest response seen or fitted, relative to the assay's reference) on hGIPR (HEK293, read-out: hGIPR Emax, % ± SEM, percent of maximal response to GIP(1-42)NH2, 37° C., 0.1% bovine casein, arithmetic mean) came to 98.5 ± 2.47%.
Turning to `CCCCCCCCCCCC(=O)N[C@@H](CCC(=O)NCCOCCOCC(=O)NCCOCCOCC(=O)NCCCC[C@H](NC(=O)[C@H](CCCN)NC(=O)[C@H](CC(=O)O)NC(=O)[C@H](CC(C)C)NC(=O)[C@](C)(CC(C)C)NC(=O)[C@@H](NC(=O)[C@H](CO)NC(=O)[C@H](Cc1ccncc1)NC(=O)[C@H](CC(=O)O)NC(=O)[C@H](CO)NC(=O)[C@@H](NC(=O)[C@](C)(Cc1ccccc1F)NC(=O)[C@@H](NC(=O)CNC(=O)[C@H](CCC(=O)O)NC(=O)C(C)(C)NC(=O)[C@@H](N)Cc1ccc(O)cc1)[C@@H](C)O)[C@@H](C)O)[C@@H](C)CC)C(=O)N[C@@H](C)C(=O)N[C@@H](CCC(N)=O)C(=O)NC(C)(C)C(=O)N[C@@H](CCC(=O)O)C(=O)N[C@@H](Cc1ccccc1)C(=O)N[C@H](C(=O)N[C@H](CCC(=O)O)C(=O)N[C@@](C)(Cc1ccc(O)cc1)C(=O)N[C@@H](CC(C)C)C(=O)N[C@H](C(=O)N[C@@H](CCCCNC(=O)COCCOCCNC(=O)COCCOCCNC(=O)CC[C@H](NC(=O)CCCCCCCCCCC)C(=O)O)C(=O)NCC(=O)NCC(=O)N1CCC[C@H]1C(=O)N[C@@H](CO)C(=O)N[C@@H](CO)C(=O)NCC(=O)N[C@@H](C)C(=O)N1CCC[C@H]1C(=O)N1CCC[C@H]1C(=O)N1CCC[C@H]1C(=O)N[C@@H](CO)C(N)=O)[C@@H](C)CC)[C@@H](C)CC)C(=O)O` [Example 139], the inhibitory constant (Ki) – broadly, the equilibrium dissociation constant of an inhibitor or competing ligand from its target – was 109 nM in assay [1] (human GcgR, geometric mean (SEM, n), read-out: Binding Affinity Ki, nM (SEM, n) hGCGR) and 0.268 nM in assay [3] (human GLP-1R, geometric mean (SEM, n), read-out: Binding Affinity Ki, nM (SEM, n) hGLP-1R). In addition, the Emax on hGLP-1R (HEK293, percent of maximal response to GLP-1(7-36)NH2, 37° C., 0.1% bovine casein, arithmetic mean, read-out: hGLP-1R Emax, % ± SEM) amounted to 111%. Besides, the EC50 at hGLP-1R (incubated at 37° C., 0.1% bovine casein (no human serum albumin), geometric mean, read-out: hGLP-1R EC50, nM (SEM, n)) is 0.141 nM; on hGCGR (incubated at 37° C., 0.1% bovine casein (no human serum albumin), geometric mean, read-out: hGCGR EC50, nM (SEM, n)) it was greater than 9950 nM; at hGIPR (incubated at 37° C., read-out: hGIPR EC50, nM (SEM, n)) it was 0.0108 nM.
Consider `CC[C@H](C)[C@H](NC(=O)[C@H](CC(C)C)NC(=O)[C@](C)(Cc1ccc(O)cc1)NC(=O)[C@H](CCCCNC(=O)COCCOCCNC(=O)COCCOCCNC(=O)CC[C@H](NC(=O)CCCCCCCCCOc1ccc(C(=O)O)cc1)C(=O)O)NC(=O)[C@@H](NC(=O)[C@H](Cc1ccccc1)NC(=O)[C@H](CCC(=O)O)NC(=O)C(C)(C)NC(=O)[C@H](CCC(N)=O)NC(=O)[C@H](C)NC(=O)[C@H](CCC(N)=O)NC(=O)[C@H](CCCN)NC(=O)[C@H](CC(=O)O)NC(=O)[C@H](CC(C)C)NC(=O)[C@](C)(CC(C)C)NC(=O)[C@@H](NC(=O)C(C)(C)NC(=O)[C@@H](NC(=O)[C@H](CC(=O)O)NC(=O)[C@H](CO)NC(=O)[C@@H](NC(=O)[C@](C)(Cc1ccccc1F)NC(=O)[C@@H](NC(=O)CNC(=O)[C@H](CCC(=O)O)NC(=O)C(C)(C)NC(=O)[C@@H](N)Cc1ccc(O)cc1)[C@@H](C)O)[C@@H](C)O)C(C)C)[C@@H](C)CC)[C@@H](C)CC)C(=O)N[C@@H](CCCCNC(=O)COCCOCCNC(=O)COCCOCCNC(=O)CC[C@H](NC(=O)CCCCCCCCCOc1ccc(C(=O)O)cc1)C(=O)O)C(=O)NCC(=O)NCC(=O)N1CCC[C@H]1C(=O)N[C@@H](CO)C(=O)N[C@@H](CO)C(=O)NCC(=O)N[C@@H](C)C(=O)N1CCC[C@H]1C(=O)N1CCC[C@H]1C(=O)N1CCC[C@H]1C(=O)N[C@@H](CO)C(N)=O` [Example 446] (H-Y[Aib]EGT[αMePhe(2-F)]TSDV[Aib]I[αMeL]LD[Orn]QAQ[Aib]EFIK([AEEA-AEEA-γGlu-Decanoyl(10-(4-HOOC-PhO))])[αMeY]LIK([AEEA-AEEA-γGlu-Decanoyl(10-(4-HOOC-PhO))])GGPSSGAPPPS-NH2), for which the Ki turned out to be 109 nM in assay [1] and 0.382 nM in assay [3]. Further, the maximum response (Emax) at hGLP-1R (HEK293, read-out: hGLP-1R Emax, % ± SEM, cAMP, 37° C., 0.1% bovine casein and 1.0% human serum albumin, percent of maximal response to GLP-1(7-36)NH2) came out at 105%; at hGIPR (HEK293, read-out: hGIPR Emax, % ± SEM, cAMP, 37° C., 0.1% bovine casein and 1.0% human serum albumin, percent of maximal response to GIP(1-42)NH2), 97%; on hGIPR (HEK293, read-out: hGIPR Emax, % ± SEM, cAMP, 37° C., 0.1% bovine casein, percent of maximal response to GIP(1-42)NH2, arithmetic mean) it was 105%. The 50% effective concentration (EC50) on hGLP-1R (hGLP-1R EC50, nM (SEM, n), 37° C., 0.1% bovine casein (no human serum albumin), geometric mean) was 0.162 nM; at hGLP-1R (hGLP-1R EC50, nM (SEM, n), 37° C., 0.1% bovine casein and 1.0% human serum albumin, geometric mean (SEM, n)) it was 33.5 nM; at hGCGR (hGCGR EC50, nM (SEM, n), 37° C., 0.1% bovine casein (no human serum albumin), geometric mean), greater than 9950 nM; on hGCGR (hGCGR EC50, nM (SEM, n), 37° C., 0.1% bovine casein and 1.0% human serum albumin, geometric mean (SEM, n)), greater than 9950 nM; at hGIPR (hGIPR EC50, nM (SEM, n), 37° C.), 0.0164 nM.
